Measured values: patent EP1247803A2, “Indolinone compounds suitable for modulation of protein kinases” (Sugen, Inc., priority 1996, dated 1998)

Key:
FLK-1 receptor = target: T1, FLK-1 receptor (Mus musculus, UniProt P35918); experiment: FLK-1 ELISA (kinase activity of the FLK-1 receptor in FLK-1/NIH3T3 cells, VEGF stimulated); format: cell-based; design: concentration or dose not given beside the values
T1 construct: expressed in transfected cells; host or cells: NIH3T3 C7#3
Summary of the method: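 NIH3T3 C7#3 cells expressing FLK-1 were seeded at 25.000 cells/well, serum-starved overnight in 0.1% FBS, then treated with compound for two hours at 37°C (final DMSO 0.5%) before VEGF stimulation. Receptor was captured on anti-rabbit IgG-coated ELISA plates bearing affinity-purified anti-FLK-1 antiserum.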

PDGF-R = PDGF-R (Homo sapiens, UniProt P09619); experiment: PDGF-R ELISA; format: cell-based
Sequence of PDGF-R (P09619 33-1106, species assumed): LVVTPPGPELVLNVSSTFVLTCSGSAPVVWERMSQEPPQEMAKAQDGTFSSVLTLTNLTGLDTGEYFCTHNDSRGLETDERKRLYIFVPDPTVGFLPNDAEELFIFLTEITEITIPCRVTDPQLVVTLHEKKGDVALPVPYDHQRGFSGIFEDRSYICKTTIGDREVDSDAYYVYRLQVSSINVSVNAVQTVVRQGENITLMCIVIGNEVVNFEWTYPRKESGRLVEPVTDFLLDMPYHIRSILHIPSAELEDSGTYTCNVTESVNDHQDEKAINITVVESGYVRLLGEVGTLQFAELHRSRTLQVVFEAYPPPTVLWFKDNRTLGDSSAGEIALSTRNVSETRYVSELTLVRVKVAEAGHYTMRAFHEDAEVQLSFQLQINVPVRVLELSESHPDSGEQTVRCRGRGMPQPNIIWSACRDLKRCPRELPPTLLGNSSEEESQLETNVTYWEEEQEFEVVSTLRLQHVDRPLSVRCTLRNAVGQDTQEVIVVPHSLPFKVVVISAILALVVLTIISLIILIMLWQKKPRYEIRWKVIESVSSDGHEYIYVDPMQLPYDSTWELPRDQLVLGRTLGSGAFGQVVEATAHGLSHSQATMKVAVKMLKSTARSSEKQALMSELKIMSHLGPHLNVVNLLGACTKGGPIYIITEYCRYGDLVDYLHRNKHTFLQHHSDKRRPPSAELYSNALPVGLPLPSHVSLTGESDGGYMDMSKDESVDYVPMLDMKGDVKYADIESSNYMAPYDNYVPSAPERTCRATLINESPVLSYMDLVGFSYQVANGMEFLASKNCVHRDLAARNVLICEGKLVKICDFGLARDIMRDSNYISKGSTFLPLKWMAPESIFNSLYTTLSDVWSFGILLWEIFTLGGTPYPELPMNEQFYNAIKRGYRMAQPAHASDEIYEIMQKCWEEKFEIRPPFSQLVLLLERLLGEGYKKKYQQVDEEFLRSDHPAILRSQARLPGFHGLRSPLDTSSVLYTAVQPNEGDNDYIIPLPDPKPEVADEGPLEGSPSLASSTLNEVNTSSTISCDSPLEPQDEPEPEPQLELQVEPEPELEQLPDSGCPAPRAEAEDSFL
Source text: A PDGF-R ELISA is described in International Patent Publication No. WO 96/40116, published December 19, 1996 by Tang et al.

MET = MET biochemical kinase assay; design: species or system human; concentration or dose not given beside the values
Summary of the method: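 Immunocaptured MET autophosphorylation, read colorimetrically (TMB) via HRP anti-phosphotyrosine antibody. Kinase reaction initiated with buffer containing ATP and divalent metals after compound addition to plate-bound receptor from lysates.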

T1 sequence (P35918 20-1345): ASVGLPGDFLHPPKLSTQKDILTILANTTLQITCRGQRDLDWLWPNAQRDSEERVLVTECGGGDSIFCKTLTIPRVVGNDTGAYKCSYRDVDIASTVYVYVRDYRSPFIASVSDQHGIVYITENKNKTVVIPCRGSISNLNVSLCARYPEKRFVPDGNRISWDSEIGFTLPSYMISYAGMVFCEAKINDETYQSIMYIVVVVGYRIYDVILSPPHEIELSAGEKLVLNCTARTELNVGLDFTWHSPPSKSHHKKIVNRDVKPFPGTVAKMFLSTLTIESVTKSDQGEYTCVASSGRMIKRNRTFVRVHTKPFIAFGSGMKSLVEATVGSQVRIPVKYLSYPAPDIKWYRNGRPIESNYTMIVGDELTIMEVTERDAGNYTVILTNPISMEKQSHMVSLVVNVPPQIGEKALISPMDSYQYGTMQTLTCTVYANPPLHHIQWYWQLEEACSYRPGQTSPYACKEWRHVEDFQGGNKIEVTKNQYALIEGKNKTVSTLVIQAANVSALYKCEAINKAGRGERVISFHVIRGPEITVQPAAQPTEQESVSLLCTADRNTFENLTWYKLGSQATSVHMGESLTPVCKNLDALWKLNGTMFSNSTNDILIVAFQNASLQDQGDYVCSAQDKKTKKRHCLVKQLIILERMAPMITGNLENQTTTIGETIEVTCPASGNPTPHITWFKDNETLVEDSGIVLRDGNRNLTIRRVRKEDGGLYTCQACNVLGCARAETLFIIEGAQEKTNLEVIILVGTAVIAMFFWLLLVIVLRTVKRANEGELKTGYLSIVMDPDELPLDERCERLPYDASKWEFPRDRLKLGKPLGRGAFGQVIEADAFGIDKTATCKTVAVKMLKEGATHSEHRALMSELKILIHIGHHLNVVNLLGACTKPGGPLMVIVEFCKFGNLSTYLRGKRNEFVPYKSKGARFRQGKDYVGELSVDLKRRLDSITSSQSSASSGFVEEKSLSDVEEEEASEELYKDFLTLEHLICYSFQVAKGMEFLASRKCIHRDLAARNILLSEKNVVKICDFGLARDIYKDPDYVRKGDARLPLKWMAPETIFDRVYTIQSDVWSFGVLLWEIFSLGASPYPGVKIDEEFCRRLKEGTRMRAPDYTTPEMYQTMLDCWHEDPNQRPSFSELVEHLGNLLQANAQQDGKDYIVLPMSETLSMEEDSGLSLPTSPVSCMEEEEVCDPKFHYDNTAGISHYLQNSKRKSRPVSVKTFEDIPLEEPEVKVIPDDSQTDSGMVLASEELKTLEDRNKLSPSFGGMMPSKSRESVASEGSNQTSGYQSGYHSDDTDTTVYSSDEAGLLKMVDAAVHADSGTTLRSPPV

| Compound | Fik Kinase %Inhibition (FLK-1 receptor) [%] | PDGF Kinase %Inhibition (PDGF-R) [%] | Met Kinase % Inhibition (MET) [%] |
| --- | --- | --- | --- |
| Cc1c(Br)ccc2c1C(=Cc1coc3ccc(Cl)cc3c1=O)C(=O)N2 [10730/C06] | 5.3 | 7.6 | 34.7 |
| O=C1Nc2ccc(S(=O)(=O)Nc3ccc(C(F)(F)F)cc3)cc2C1=Cc1ccncc1 [10729/E09] | 6.9 | -11.7 | 85.0 |
| O=C1Nc2ccc(S(=O)(=O)Nc3ccc(C(F)(F)F)cc3)cc2C1=Cc1coc2ccc(Cl)cc2c1=O [10730/E06] | 11.1 | 26.0 | 52.8 |
| COc1cc(Br)c(O)c(C=C2C(=O)Nc3ccc(Br)c(C)c32)c1 [10718/C03] | -13.9 |  | 95.7 |
| O=C1Nc2ccc(I)cc2C1=Cc1ccc([N+](=O)[O-])o1 [10718/B11] | 4.5 |  | 69.6 |
| O=C1Nc2ccc(I)cc2C1=Cc1ccc(-c2ccccc2Cl)o1 [10730/B07] | 0.6 | 2.4 | 63.1 |
| CNS(=O)(=O)c1ccc2c(c1)C(=Cc1coc3ccc(Cl)cc3c1=O)C(=O)N2 [10730/D06] | 5.8 | -2.0 | 55.9 |
| COc1ccc(C=C2C(=O)Nc3ccc(I)cc32)c(OC)c1OC [10730/B02] | 5.0 | 5.4 | 66.3 |
| Cc1c(Br)ccc2c1C(=Cc1ccc3ccccc3c1O)C(=O)N2 [10718/C04] | 15.3 |  | 93.1 |
| O=C1Nc2ccc(I)cc2C1=Cc1coc2ccc(Cl)cc2c1=O [10730/B06] | 2.4 | 7.6 | 71.3 |
| CNS(=O)(=O)c1ccc2c(c1)C(=Cc1ccc(-c3ccccc3Cl)o1)C(=O)N2 [10730/D07] | 8.8 | 5.0 | 52.5 |
| COC1CC(C=C2C(=O)Nc3ccc(I)cc32)C(OC)O1 (stereo not drawn) [10730/B10] | 15.2 | 19.0 | 69.5 |
| CC(=O)n1cc(C=C2C(=O)Nc3ccc(I)cc32)c2ccccc21 [10730/B05] | -0.5 | -2.9 | 71.1 |
| CC(=O)n1cc(C=C2C(=O)Nc3c(Br)cc(Br)cc32)c2ccccc21 [10730/A05] | -10.8 | 2.8 | 42.7 |
| COc1cc(C=C2C(=O)Nc3ccc(I)cc32)cc(OC)c1OC [10730/B04] | 12.8 | 7.2 | 73.2 |
| O=C1Nc2ccc(S(=O)(=O)N3CCOCC3)cc2C1=Cc1ccc(-c2ccccc2Cl)o1 [10730/F07] | 67.5 | -2.0 | 60.7 |
| Cc1c(Br)ccc2c1C(=Cc1coc3c(Br)cc(Br)cc3c1=O)C(=O)N2 [10730/C09] | 14.0 | 18.1 | 42.9 |
| O=C1Nc2ccc(CCCl)cc2C1=Cc1cccnc1 [10729/G08] | -1.0 | 0.8 | 39.9 |
| O=C1Nc2ccc(S(=O)(=O)Nc3ccc(C(F)(F)F)cc3)cc2C1=Cc1cccnc1 [10729/E08] | 10.9 | 11.0 | 73.7 |
| O=C1Nc2ccc(S(=O)(=O)N3CCOCC3)cc2C1=Cc1coc2ccc(Cl)cc2c1=O [10730/F06] | 21.9 | 3.2 | 56.5 |
| O=C1Nc2ccc(CCCl)cc2C1=Cc1ccc(N2CCCC2)cc1 [10729/G10] | -9.1 | -13.2 | 26.7 |
| O=C1Nc2ccc(S(=O)(=O)Nc3ccc(C(F)(F)F)cc3)cc2C1=Cc1cc2ccccc2nc1Cl [10730/E08] | 25.1 | 48.4 | 40.3 |
| Cc1ccsc1C=C1C(=O)Nc2ccc(CCCl)cc21 [10729/G05] | 8.7 | 9.9 | 22.6 |
| CC(=O)n1cc(C=C2C(=O)Nc3ccc(Br)c(C)c32)c2ccccc21 [10730/C05] | 11.4 | 8.5 | 46.1 |
| COC1CC(C=C2C(=O)Nc3c(Br)cc(Br)cc32)C(OC)O1 (stereo not drawn) [10730/A10] | 0.5 | 1.0 | 68.7 |

| Compound | Fik Kinase %Inhibition (FLK-1 receptor) [%] | PDGF Kinase %Inhibition (PDGF-R) [%] | Met Kinase % Inhibition (MET) [%] |
| --- | --- | --- | --- |
| Cc1cc(C=C2C(=O)Nc3ccc(Br)c(C)c32)oc1C [10730/C11] | -8.0 | 16.4 | 66.6 |
| COc1ccc(C=C2C(=O)Nc3ccc(S(=O)(=O)Nc4ccc(C(F)(F)F)cc4)cc32)c(OC)c1OC [10730/E02] | 24.8 | 16.4 | 18.8 |
| Cc1c(O)ccc(C=C2C(=O)Nc3ccc(I)cc32)c1O [10718/B09] | -14.7 |  | 52.9 |
| O=C1Nc2ccc(S(=O)(=O)Nc3ccc(C(F)(F)F)cc3)cc2C1=CC1C=CCCC1 (stereo not drawn) [10729/E11] | 70.9 | 22.4 | 50.8 |
| COc1cc(OC)c(OC)cc1C=C1C(=O)Nc2c(Br)cc(Br)cc21 [10730/A03] | -3.2 | -11.2 | 62.3 |
| O=C1Nc2c(Br)cc(Br)cc2C1=Cc1coc2ccc(Cl)cc2c1=O [10730/A06] | -7.0 | 6.3 | 61.0 |
| CSc1ccc(C=C2C(=O)Nc3ccc(CCCl)cc32)cc1 [10729/G04] | 12.2 | 1.6 | 18.2 |
| Cc1cc(C=C2C(=O)Nc3c(Br)cc(Br)cc32)oc1C [10730/A11] | 6.8 | -6.4 | 91.0 |
| O=C1Nc2c(Br)cc(Br)cc2C1=Cc1ccc(Br)cc1 [10717/A08] | -5.2 |  | 21.7 |
| COc1ccc(C=C2C(=O)Nc3ccc(S(=O)(=O)N4CCOCC4)cc32)c(OC)c1OC [10730/F02] | 18.4 | 20.3 | -6.2 |
| COC1CC(C=C2C(=O)Nc3ccc(S(=O)(=O)Nc4ccc(C(F)(F)F)cc4)cc32)C(OC)O1 (stereo not drawn) [10730/E10] | 26.0 | 39.6 | 63.6 |
| CNS(=O)(=O)c1ccc2c(c1)C(=Cc1cc(C)c(C)o1)C(=O)N2 [10730/D11] | 7.7 | -0.7 | 9.7 |
| O=C1Nc2ccc(I)cc2C1=Cc1ccco1 [10718/B10] | 20.1 |  | 83.6 |
| COc1ccc(C=C2C(=O)Nc3ccc(Br)c(C)c32)c(OC)c1OC [10730/C02] | 48.8 | 26.5 | 31.2 |
| Cc1cc(C=C2C(=O)Nc3ccc(S(=O)(=O)Nc4ccc(C(F)(F)F)cc4)cc32)oc1C [10730/E11] | 29.1 | 31.7 | 77.2 |
| O=C1Nc2c(Br)cc(Br)cc2C1=Cc1ccc(-c2ccccc2Cl)o1 [10730/A07] | -18.9 | -23.9 | 55.4 |
| COc1cc(OC)c(OC)cc1C=C1C(=O)Nc2ccc(Br)c(C)c21 [10730/C03] | 25.5 | 36.5 | 43.2 |
| COc1cc(C=C2C(=O)Nc3ccc(Br)c(C)c32)cc(OC)c1OC [10730/C04] | 46.1 | 15.5 | 43.2 |
| COc1cc(C=C2C(=O)Nc3c(Br)cc(Br)cc32)cc(OC)c1OC [10730/A04] | -9.9 | -5.1 | 70.6 |
| CNS(=O)(=O)c1ccc2c(c1)C(=Cc1cc(OC)c(OC)c(OC)c1)C(=O)N2 [10730/D04] | 9.1 | 20.8 | 33.6 |
| O=C1Nc2ccc(CCCl)cc2C1=Cc1cccc(Oc2ccccc2)c1 [10729/G06] | 10.9 | 11.8 | 26.0 |
| O=C1Nc2ccc(I)cc2C1=Cc1ccc(Cl)c([N+](=O)[O-])c1 [10718/B08] | 5.4 |  | 63.4 |
| O=C1Nc2ccc(CCCl)cc2C1=CC1C=CCCC1 (stereo not drawn) [10729/G11] | -0.5 | 3.8 | 15.4 |
| CCOC(=O)c1c(C)[nH]c(C=C2C(=O)Nc3ccc(Br)c(C)c32)c1C [10718/C02] | 26.2 |  | 29.6 |
| COC(=O)c1[nH]c(C)c(C=C2C(=O)Nc3ccc(I)cc32)c1C(=O)OC [10718/B07] | 17.7 |  | 53.7 |
